Source: PubChem BioAssay AID248 (DTP/NCI, 2004)
Where “and” joins values, the source holds several entries; their conditions need not be identical. Equal values may be shown once. Toxic doses and inconclusive results are not listed. No stated cut-off is given here; in the data, active means T/C of 150% or more; inactive means T/C below 125%.

Test system: L1210 leukemia ip in BDF1 mice, survival T/C
Test: NCI In Vivo Anticancer Drug Screen. Data for tumor model L1210 Leukemia (intraperitoneal) in B6D2F1 (BDF1) mice
Details: endpoint: mean survival time, higher = longer survival
Method in brief: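 Read-out is survival time, reported as the treated-group measurement over the vehicle-control measurement.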

[1] = dose: 50.0 mg/kg/injection, schedule: Q01DX001 (ip), vehicle: carboxymethylcellulose (CMC)
[2] = dose: 50.0 mg/kg/injection, schedule: Q01DX001 (ip), vehicle: saline
[3] = dose: 30.0 mg/kg/injection, schedule: Q01DX Z (ip), vehicle: saline
[4] = dose: 120.0 mg/kg/injection, schedule: Q01DX Z (oral), vehicle: saline
[5] = dose: 50.0 mg/kg/injection, schedule: Q04DX002 (ip), vehicle: saline with Tween-80

Measured: T/C

CN(CC#CCOc1ccc(Cl)cc1)c1ccccc1
inactive: dose: 12.5 mg/kg/injection, schedule: Q01DX001 (ip), vehicle: carboxymethylcellulose (CMC) 96 % of control | dose: 12.5 mg/kg/injection, schedule: Q01DX009 (ip), vehicle: carboxymethylcellulose (CMC) 97 % of control and 90 % of control | dose: 12.5 mg/kg/injection, schedule: Q04DX002 (ip), vehicle: carboxymethylcellulose (CMC) 93 % of control and 106 % of control | dose: 12.5 mg/kg/injection, schedule: Q04DX003 (ip), vehicle: carboxymethylcellulose (CMC) 103 % of control | dose: 25.0 mg/kg/injection, schedule: Q01DX001 (ip), vehicle: carboxymethylcellulose (CMC) 96 % of control | dose: 25.0 mg/kg/injection, schedule: Q01DX009 (ip), vehicle: carboxymethylcellulose (CMC) 93 % of control | dose: 25.0 mg/kg/injection, schedule: Q04DX002 (ip), vehicle: carboxymethylcellulose (CMC) 93 % of control and 110 % of control | dose: 25.0 mg/kg/injection, schedule: Q04DX003 (ip), vehicle: carboxymethylcellulose (CMC) 102 % of control | [1] 96 % of control | dose: 50.0 mg/kg/injection, schedule: Q01DX009 (ip), vehicle: carboxymethylcellulose (CMC) 93 % of control and 90 % of control | dose: 50.0 mg/kg/injection, schedule: Q04DX002 (ip), vehicle: carboxymethylcellulose (CMC) 92 % of control and 94 % of control | dose: 50.0 mg/kg/injection, schedule: Q04DX003 (ip), vehicle: carboxymethylcellulose (CMC) 97 % of control | dose: 100.0 mg/kg/injection, schedule: Q04DX002 (ip), vehicle: carboxymethylcellulose (CMC) 95 % of control | dose: 200.0 mg/kg/injection, schedule: Q04DX002 (ip), vehicle: carboxymethylcellulose (CMC) 88 % of control | dose: 400.0 mg/kg/injection, schedule: Q04DX002 (ip), vehicle: carboxymethylcellulose (CMC) 88 % of control

CCN(CC[n+]1ccccc1)c1ccccc1 (tested in a mixture with another compound)
inactive: [2] 103 % of control

C/C=C/C=C/COC(=O)CCCCCCCC
inactive: dose: 100.0 mg/kg/injection, schedule: Q04DX002 (ip), vehicle: saline 103 % of control | dose: 200.0 mg/kg/injection, schedule: Q04DX002 (ip), vehicle: saline 103 % of control | dose: 400.0 mg/kg/injection, schedule: Q04DX002 (ip), vehicle: saline 108 % of control

CCOC(=O)Nc1cccc2ccccc12
inactive: dose: 100.0 mg/kg/injection, schedule: Q04DX003 (ip), vehicle: Klucel (hydroxypropylcellulose) (HPC) 101 % of control | dose: 200.0 mg/kg/injection, schedule: Q04DX003 (ip), vehicle: Klucel (hydroxypropylcellulose) (HPC) 97 % of control | dose: 400.0 mg/kg/injection, schedule: Q04DX003 (ip), vehicle: Klucel (hydroxypropylcellulose) (HPC) 98 % of control

Oc1ccccc1/C=N\N=C(N/N=C/c1ccccc1O)N/N=C/c1ccccc1O
inactive: dose: 15.0 mg/kg/injection, schedule: Q01DX Z (ip), vehicle: saline 98 % of control | [3] 102 % of control | dose: 60.0 mg/kg/injection, schedule: Q01DX Z (ip), vehicle: saline 102 % of control | dose: 120.0 mg/kg/injection, schedule: Q01DX Z (ip), vehicle: saline 96 % of control | [4] 95 % of control | dose: 240.0 mg/kg/injection, schedule: Q01DX Z (ip), vehicle: saline 101 % of control | dose: 240.0 mg/kg/injection, schedule: Q01DX Z (oral), vehicle: saline 90 % of control | dose: 480.0 mg/kg/injection, schedule: Q01DX Z (ip), vehicle: saline 95 % of control | dose: 480.0 mg/kg/injection, schedule: Q01DX Z (oral), vehicle: saline 92 % of control | dose: 960.0 mg/kg/injection, schedule: Q01DX Z (oral), vehicle: saline 90 % of control

C=CCNC(=S)NN
inactive: dose: 6.25 mg/kg/injection, schedule: Q04DX003 (ip), vehicle: Klucel (hydroxypropylcellulose) (HPC) 115 % of control | dose: 12.5 mg/kg/injection, schedule: Q04DX003 (ip), vehicle: Klucel (hydroxypropylcellulose) (HPC) 95 % of control

C#C/C(CCC)=N\Nc1ccc([N+](=O)[O-])cc1[N+](=O)[O-]
inactive: [5] 88 % of control | dose: 100.0 mg/kg/injection, schedule: Q04DX002 (ip), vehicle: saline with Tween-80 94 % of control | dose: 200.0 mg/kg/injection, schedule: Q04DX002 (ip), vehicle: saline with Tween-80 88 % of control

O=C(CN1CCOCC1)N1CCN(C(=O)CN2CCOCC2)CC1
inactive: [1] 92 % of control | dose: 100.0 mg/kg/injection, schedule: Q01DX001 (ip), vehicle: carboxymethylcellulose (CMC) 97 % of control | dose: 200.0 mg/kg/injection, schedule: Q01DX001 (ip), vehicle: carboxymethylcellulose (CMC) 95 % of control | dose: 400.0 mg/kg/injection, schedule: Q01DX001 (ip), vehicle: carboxymethylcellulose (CMC) 101 % of control

C(CC1CCNCC1)CC1CCNCC1
inactive: dose: 10.0 mg/kg/injection, schedule: Q01DX Z (ip), vehicle: saline 96 % of control | [3] 96 % of control

O=C(O)COc1cc(F)c(Cl)cc1Cl
inactive: dose: 100.0 mg/kg/injection, schedule: Q01DX009 (ip), vehicle: Klucel (hydroxypropylcellulose) (HPC) 100 % of control | dose: 200.0 mg/kg/injection, schedule: Q01DX009 (ip), vehicle: Klucel (hydroxypropylcellulose) (HPC) 90 % of control

CCOC(=O)C(=O)c1c2cn(O)nc(OC)c-2nc1[N+](=O)[O-]
inactive: dose: 12.5 mg/kg/injection, schedule: Q04DX002 (ip), vehicle: saline with Tween-80 89 % of control | dose: 25.0 mg/kg/injection, schedule: Q04DX002 (ip), vehicle: saline with Tween-80 96 % of control | [5] 96 % of control

C=CCN(CC=C)CCSC(=S)NCCOC
inactive: dose: 100.0 mg/kg/injection, schedule: Q01DX001 (ip), vehicle: acetone 100 % of control | dose: 100.0 mg/kg/injection, schedule: Q04DX003 (ip), vehicle: acetone 107 % of control | dose: 200.0 mg/kg/injection, schedule: Q01DX001 (ip), vehicle: acetone 97 % of control | dose: 200.0 mg/kg/injection, schedule: Q04DX003 (ip), vehicle: acetone 106 % of control | dose: 400.0 mg/kg/injection, schedule: Q01DX001 (ip), vehicle: acetone 90 % of control | dose: 400.0 mg/kg/injection, schedule: Q04DX003 (ip), vehicle: acetone 107 % of control

O=C(Nc1ccc(C2=NCCN2)cc1)c1cccc(NC(=S)Nc2ccc(C3=NCCN3)cc2)c1
inactive: dose: 5.0 mg/kg/injection, schedule: Q01DX Z (ip), vehicle: saline 107 % of control and 122 % of control | dose: 20.0 mg/kg/injection, schedule: Q01DX Z (ip), vehicle: saline 102 % of control and 113 % of control | dose: 60.0 mg/kg/injection, schedule: Q01DX Z (oral), vehicle: saline 103 % of control | [4] 111 % of control

C=C(C)C1C2OC2C(=O)C2=CCCC(C)C21C (stereo not drawn)
inactive: dose: 25.0 mg/kg/injection, schedule: Q04DX003 (ip), vehicle: saline 97 % of control | dose: 50.0 mg/kg/injection, schedule: Q04DX003 (ip), vehicle: saline 100 % of control | dose: 100.0 mg/kg/injection, schedule: Q04DX003 (ip), vehicle: saline 100 % of control

CCOC(=O)c1c[nH]c2nc(N)ccc2c1=O
inactive: [2] 104 % of control | dose: 100.0 mg/kg/injection, schedule: Q01DX001 (ip), vehicle: saline 106 % of control | dose: 200.0 mg/kg/injection, schedule: Q01DX001 (ip), vehicle: saline 106 % of control | dose: 400.0 mg/kg/injection, schedule: Q01DX001 (ip), vehicle: saline 101 % of control

CC(C)NC(=O)Oc1ccccc1
inactive: dose: 100.0 mg/kg/injection, schedule: Q04DX002 (ip), vehicle: Klucel (hydroxypropylcellulose) (HPC) 93 % of control | dose: 200.0 mg/kg/injection, schedule: Q04DX002 (ip), vehicle: Klucel (hydroxypropylcellulose) (HPC) 110 % of control | dose: 400.0 mg/kg/injection, schedule: Q04DX002 (ip), vehicle: Klucel (hydroxypropylcellulose) (HPC) 96 % of control
